Measurements: patent US7074789B2, “Kinase inhibitors” (Amgen Inc., priority 1999, dated 2006)
pIC50: −log10 of the molar value.

Key:
Type in all cases: biochemical
Lyn = molecular target: T1, Lyn (Homo sapiens, UniProt P07948); test: Kinase inhibition assay (33P transfer), Lyn; conditions: Table 6, Lyn-1 kinase inhibition class
T1 construct: Kinases are expressed as either kinase domains or full length constructs; made in house
How it was run: (§1)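 Radiometric format: recombinant tagged kinase (catalytic domain or whole protein, sometimes combined with regulatory polypeptides) phosphorylates immobilised poly(Glu,Tyr) 4:1 or poly(Arg,Ser) 3:1 using [33P]ATP. Wells are washed in 0.5% phosphoric acid, then counted. IC50 is taken where substrate labelling falls by half.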

Lck = molecular target: T2, Lck (Homo sapiens, UniProt P06239); test: Kinase inhibition assay (33P transfer), Lck; conditions: Table 3; read-out: Lck-1
T2 construct: Kinases are expressed as either kinase domains or full length constructs; made in house
T2 sequence (P06239 whole entry, species assumed, the tested form may be a part): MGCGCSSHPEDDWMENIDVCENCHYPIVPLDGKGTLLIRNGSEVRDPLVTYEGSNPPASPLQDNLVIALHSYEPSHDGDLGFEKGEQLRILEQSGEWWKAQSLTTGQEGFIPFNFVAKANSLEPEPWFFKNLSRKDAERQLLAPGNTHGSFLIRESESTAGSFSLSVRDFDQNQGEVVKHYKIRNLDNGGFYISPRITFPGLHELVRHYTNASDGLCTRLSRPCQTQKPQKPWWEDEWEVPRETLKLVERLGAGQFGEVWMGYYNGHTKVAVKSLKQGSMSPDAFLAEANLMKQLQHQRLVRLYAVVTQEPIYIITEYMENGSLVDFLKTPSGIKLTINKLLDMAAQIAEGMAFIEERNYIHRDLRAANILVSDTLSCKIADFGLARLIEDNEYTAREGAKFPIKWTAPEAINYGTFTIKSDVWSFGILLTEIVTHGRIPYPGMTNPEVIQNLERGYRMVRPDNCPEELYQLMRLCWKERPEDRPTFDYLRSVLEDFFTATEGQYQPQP
How it was run: (§2)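 Activity was read as 33P incorporation, counted by liquid scintillation after a 0.5% phosphoric acid wash, into poly(Glu,Tyr) 4:1 or poly(Arg,Ser) 3:1 substrates coated on plates. Enzymes were tagged (GST or polyHis) kinase domains or full-length proteins from bacterial or insect-cell expression, sometimes with regulatory polypeptides.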

FGFR1 = molecular target: T3, FGFR1 (Homo sapiens, UniProt P11362); test: Kinase inhibition assay (33P transfer), FGFR1; conditions: read-out: FGFR1-1
T3 construct: Kinases are expressed as either kinase domains or full length constructs; made in house

c-Met = molecular target: T4, c-Met (Homo sapiens, UniProt P08581); test: Kinase inhibition assay (33P transfer), c-Met; conditions: Table 2, kinase inhibition class; read-out: Met-1
T4 construct: Kinases are expressed as either kinase domains or full length constructs; made in house
How it was run: as §1

Kdr = molecular target: T5, Kdr (Homo sapiens, UniProt P35968); test: Kinase inhibition assay (33P transfer), Kdr; conditions: Table 3; read-out: KDR-1
T5 construct: Kinases are expressed as either kinase domains or full length constructs; made in house
T5 sequence (P35968 20-1356, species assumed): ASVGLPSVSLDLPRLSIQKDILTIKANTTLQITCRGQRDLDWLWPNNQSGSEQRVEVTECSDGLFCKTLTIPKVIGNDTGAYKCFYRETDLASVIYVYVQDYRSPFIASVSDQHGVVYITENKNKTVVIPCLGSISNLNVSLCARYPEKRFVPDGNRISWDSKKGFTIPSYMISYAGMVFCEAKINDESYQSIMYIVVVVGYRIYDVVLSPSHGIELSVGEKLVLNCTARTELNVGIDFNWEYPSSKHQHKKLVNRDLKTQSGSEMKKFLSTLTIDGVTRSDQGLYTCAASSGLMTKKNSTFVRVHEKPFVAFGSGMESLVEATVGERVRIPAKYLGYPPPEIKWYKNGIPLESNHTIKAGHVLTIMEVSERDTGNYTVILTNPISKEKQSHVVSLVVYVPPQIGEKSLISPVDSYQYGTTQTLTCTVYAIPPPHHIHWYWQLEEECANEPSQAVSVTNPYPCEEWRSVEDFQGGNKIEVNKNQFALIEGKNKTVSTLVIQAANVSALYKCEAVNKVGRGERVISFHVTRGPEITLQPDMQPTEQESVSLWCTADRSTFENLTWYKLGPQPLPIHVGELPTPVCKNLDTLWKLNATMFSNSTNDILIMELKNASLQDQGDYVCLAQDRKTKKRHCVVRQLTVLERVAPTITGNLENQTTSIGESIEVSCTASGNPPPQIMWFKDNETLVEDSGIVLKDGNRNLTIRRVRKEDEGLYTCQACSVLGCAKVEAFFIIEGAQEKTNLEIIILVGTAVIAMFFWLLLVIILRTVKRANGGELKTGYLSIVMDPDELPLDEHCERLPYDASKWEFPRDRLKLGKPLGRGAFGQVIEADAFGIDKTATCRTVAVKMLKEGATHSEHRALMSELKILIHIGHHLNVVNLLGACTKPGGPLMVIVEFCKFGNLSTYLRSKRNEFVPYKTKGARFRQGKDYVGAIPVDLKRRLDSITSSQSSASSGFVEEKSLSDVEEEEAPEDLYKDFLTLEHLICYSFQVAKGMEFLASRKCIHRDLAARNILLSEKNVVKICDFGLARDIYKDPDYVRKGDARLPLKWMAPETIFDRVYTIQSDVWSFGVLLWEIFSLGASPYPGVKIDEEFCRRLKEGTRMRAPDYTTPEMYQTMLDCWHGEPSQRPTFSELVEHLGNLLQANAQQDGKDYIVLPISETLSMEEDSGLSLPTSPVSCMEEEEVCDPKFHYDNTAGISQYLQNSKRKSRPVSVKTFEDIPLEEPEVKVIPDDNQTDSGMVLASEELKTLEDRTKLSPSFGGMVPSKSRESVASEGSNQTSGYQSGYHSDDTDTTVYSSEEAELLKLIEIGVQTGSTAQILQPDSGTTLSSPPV
How it was run: as §2

AKT = molecular target: T6, AKT (Homo sapiens, UniProt Q9Y243); test: Kinase inhibition assay (33P transfer), AKT; conditions: Table 2, kinase inhibition class; read-out: AKT3-1
T6 construct: Kinases are expressed as either kinase domains or full length constructs; made in house
How it was run: as §2

PDGFRB = molecular target: T7, PDGFRB (Homo sapiens, UniProt P09619); test: Kinase inhibition assay (33P transfer), PDGFRB; conditions: read-out: PDGFRB-1
T7 construct: Kinases are expressed as either kinase domains or full length constructs; made in house
T7 sequence (P09619 33-1106, species assumed): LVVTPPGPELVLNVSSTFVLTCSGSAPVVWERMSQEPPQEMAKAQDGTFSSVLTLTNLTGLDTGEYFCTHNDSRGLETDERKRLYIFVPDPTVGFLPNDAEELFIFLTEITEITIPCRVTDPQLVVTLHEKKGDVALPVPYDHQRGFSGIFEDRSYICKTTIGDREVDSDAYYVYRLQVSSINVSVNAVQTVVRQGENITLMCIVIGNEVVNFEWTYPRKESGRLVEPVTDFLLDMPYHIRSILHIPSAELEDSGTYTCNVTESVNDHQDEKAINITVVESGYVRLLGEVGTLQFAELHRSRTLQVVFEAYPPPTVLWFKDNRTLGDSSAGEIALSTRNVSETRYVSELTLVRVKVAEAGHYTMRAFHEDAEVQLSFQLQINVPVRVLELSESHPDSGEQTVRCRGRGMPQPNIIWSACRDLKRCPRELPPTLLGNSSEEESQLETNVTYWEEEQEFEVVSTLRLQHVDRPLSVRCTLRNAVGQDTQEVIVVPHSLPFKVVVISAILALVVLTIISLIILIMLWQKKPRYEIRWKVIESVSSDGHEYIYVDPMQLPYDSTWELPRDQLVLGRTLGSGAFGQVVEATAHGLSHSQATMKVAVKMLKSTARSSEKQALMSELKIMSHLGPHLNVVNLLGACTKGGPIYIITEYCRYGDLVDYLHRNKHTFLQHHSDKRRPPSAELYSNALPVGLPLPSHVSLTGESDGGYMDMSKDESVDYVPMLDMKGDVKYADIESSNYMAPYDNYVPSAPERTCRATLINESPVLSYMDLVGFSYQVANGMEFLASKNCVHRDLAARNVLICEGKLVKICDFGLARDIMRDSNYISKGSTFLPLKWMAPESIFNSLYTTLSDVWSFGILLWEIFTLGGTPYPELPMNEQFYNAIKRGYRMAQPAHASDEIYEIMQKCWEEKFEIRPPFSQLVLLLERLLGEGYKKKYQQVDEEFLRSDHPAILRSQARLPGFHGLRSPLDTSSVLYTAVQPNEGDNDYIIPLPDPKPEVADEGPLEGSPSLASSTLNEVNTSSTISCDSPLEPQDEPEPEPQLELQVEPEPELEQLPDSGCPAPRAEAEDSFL

ErbB4 = molecular target: T8, ErbB4 (Homo sapiens, UniProt Q15303); test: Kinase inhibition assay (33P transfer), ErbB4; conditions: read-out: ErbB4-1
T8 construct: Kinases are expressed as either kinase domains or full length constructs; made in house

Zap-70 = molecular target: T9, Zap-70 (Homo sapiens, UniProt P43403); test: Kinase inhibition assay (33P transfer), Zap-70; conditions: Table 3; read-out: Zap-1
T9 construct: Kinases are expressed as either kinase domains or full length constructs; made in house
T9 sequence (P43403 1-619): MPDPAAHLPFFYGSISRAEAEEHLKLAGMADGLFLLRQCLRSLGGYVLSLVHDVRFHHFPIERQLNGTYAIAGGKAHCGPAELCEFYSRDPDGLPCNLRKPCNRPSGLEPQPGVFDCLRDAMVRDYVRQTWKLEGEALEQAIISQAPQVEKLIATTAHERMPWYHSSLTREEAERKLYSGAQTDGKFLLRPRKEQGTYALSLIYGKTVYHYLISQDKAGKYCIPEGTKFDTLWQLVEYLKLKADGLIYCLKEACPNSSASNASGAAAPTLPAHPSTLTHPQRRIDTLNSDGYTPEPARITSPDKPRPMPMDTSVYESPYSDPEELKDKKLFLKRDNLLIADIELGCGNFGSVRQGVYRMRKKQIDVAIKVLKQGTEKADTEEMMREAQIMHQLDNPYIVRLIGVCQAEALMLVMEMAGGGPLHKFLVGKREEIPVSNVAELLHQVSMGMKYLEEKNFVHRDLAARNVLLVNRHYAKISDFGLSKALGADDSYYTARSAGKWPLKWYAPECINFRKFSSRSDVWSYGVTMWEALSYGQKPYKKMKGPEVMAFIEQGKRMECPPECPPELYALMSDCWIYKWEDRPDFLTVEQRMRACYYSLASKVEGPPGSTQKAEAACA
How it was run: as §2

Hck-1 = molecular target: T10, Hck-1 (Homo sapiens, UniProt P08631); test: Kinase inhibition assay (33P transfer), Hck; conditions: Table 6, Hck-1 kinase inhibition class
T10 construct: Kinases are expressed as either kinase domains or full length constructs; made in house
T10 sequence (P08631 whole entry, the tested form may be a part): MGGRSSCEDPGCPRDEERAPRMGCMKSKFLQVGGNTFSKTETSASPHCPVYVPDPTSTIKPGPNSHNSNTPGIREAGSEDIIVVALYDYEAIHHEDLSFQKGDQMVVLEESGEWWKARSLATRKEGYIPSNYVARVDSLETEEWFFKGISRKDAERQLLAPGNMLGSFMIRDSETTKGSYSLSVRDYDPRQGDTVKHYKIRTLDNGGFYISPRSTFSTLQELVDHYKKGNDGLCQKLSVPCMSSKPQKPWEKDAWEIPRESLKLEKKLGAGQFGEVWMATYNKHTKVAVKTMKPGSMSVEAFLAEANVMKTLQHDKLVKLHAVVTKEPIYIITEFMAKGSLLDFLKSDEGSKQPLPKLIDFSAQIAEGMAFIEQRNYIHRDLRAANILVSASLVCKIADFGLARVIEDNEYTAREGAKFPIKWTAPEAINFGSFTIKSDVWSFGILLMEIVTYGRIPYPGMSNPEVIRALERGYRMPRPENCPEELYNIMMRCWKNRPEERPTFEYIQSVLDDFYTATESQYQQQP

Flt-1 = molecular target: T11, Flt-1 (Homo sapiens, UniProt P17948); test: Kinase inhibition assay (33P transfer), Flt-1
T11 construct: Kinases are expressed as either kinase domains or full length constructs; made in house
How it was run: as §1

Fyn = molecular target: T12, Fyn (Homo sapiens, UniProt P06241); test: Kinase inhibition assay (33P transfer), Fyn; conditions: read-out: Fyn-1
T12 construct: Kinases are expressed as either kinase domains or full length constructs; made in house
How it was run: as §1

Itk = molecular target: T13, Itk (Homo sapiens, UniProt Q08881); test: Kinase inhibition assay (33P transfer), Itk; conditions: Table 3; read-out: Itk-1
T13 construct: Kinases are expressed as either kinase domains or full length constructs; made in house
T13 sequence (Q08881 1-620): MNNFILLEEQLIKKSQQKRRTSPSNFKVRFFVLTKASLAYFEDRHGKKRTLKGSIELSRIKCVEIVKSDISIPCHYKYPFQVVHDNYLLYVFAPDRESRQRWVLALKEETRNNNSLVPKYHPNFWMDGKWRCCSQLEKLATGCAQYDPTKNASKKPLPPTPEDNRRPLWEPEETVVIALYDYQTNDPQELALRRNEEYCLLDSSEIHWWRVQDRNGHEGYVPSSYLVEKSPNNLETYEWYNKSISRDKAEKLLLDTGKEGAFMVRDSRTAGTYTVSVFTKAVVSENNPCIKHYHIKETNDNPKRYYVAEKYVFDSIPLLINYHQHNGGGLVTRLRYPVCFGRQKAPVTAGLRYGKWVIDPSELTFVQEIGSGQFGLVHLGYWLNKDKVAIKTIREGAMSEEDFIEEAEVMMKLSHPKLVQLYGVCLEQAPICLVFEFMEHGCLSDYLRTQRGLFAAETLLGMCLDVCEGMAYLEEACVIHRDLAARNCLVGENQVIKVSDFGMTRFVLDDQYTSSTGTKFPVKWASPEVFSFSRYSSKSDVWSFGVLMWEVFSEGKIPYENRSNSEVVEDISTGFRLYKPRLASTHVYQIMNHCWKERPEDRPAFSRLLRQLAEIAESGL
How it was run: as §1

IGFR-1 = molecular target: T14, IGFR-1 (Homo sapiens, UniProt P08069); test: Kinase inhibition assay (33P transfer), IGFR-1; conditions: Table 2, kinase inhibition class
T14 construct: Kinases are expressed as either kinase domains or full length constructs; made in house
T14 sequence (P08069 31-1367): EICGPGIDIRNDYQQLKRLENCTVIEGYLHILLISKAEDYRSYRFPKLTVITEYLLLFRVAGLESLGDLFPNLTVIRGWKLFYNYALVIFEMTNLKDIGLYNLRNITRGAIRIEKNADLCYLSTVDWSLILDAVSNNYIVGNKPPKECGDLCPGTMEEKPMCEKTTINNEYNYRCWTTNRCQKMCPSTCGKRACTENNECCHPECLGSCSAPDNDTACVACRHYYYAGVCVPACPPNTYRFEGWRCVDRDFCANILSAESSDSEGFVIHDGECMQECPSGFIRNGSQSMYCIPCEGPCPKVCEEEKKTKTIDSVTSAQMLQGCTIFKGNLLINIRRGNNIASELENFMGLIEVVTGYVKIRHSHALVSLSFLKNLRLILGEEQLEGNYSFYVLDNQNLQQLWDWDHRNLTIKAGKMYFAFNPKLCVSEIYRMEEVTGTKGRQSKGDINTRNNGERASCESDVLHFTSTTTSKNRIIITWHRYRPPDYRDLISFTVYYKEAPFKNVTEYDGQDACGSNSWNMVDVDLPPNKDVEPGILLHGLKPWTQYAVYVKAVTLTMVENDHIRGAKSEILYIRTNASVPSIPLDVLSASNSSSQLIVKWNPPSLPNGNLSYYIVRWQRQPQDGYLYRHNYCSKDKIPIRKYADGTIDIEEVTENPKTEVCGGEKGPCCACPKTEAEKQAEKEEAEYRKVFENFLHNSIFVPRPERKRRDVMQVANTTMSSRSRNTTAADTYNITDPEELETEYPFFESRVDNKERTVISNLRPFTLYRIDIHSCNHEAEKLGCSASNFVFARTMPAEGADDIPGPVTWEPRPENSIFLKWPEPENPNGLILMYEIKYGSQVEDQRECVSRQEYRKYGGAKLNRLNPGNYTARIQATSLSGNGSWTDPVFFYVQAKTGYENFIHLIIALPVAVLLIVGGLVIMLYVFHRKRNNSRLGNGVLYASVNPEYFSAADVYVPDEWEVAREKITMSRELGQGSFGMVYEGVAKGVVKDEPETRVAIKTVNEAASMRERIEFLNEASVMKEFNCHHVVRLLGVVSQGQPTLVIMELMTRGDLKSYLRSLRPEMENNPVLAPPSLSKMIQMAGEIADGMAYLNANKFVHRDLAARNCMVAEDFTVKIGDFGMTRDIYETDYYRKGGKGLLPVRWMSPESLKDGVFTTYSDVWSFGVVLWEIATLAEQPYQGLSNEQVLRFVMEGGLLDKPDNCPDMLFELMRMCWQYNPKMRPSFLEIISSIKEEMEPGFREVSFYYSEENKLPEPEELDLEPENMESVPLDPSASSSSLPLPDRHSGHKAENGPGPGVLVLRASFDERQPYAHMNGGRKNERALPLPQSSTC

pIC50 (Lyn) | pIC50 (Lck) | pIC50 (FGFR1) | pIC50 (c-Met) | pIC50 (Kdr) | pIC50 (AKT) | pIC50 (PDGFRB) | pIC50 (ErbB4) | pIC50 (Zap-70) | pIC50 (Hck-1) | pIC50 (Flt-1) | pIC50 (Fyn) | pIC50 (Itk) | pIC50 (IGFR-1) | Compound
> 6.00 | 5.22 to 6.00 | 5.22 to 6.00 | < 4.95 | > 6.00 | < 4.95 | > 6.00 | 5.22 to 6.00 | < 4.95 | 5.06 to 5.22 | > 6.00 | 5.22 to 6.00 | 5.06 to 5.22 | 5.22 to 6.00 | COCCOc1ccc(Nc2ncnc(Nc3ccc(C)c(O)c3)n2)cc1OC [Compound 123]
> 6.01 | 5.23 to 6.01 | 5.23 to 6.01 | 5.06 to 5.23 | > 6.01 | < 4.96 | > 6.01 | < 4.96 | < 4.96 | 4.96 to 5.06 | 5.23 to 6.01 | 5.23 to 6.01 | < 4.96 | > 6.01 | COc1cc(Nc2ncnc(Nc3ccc(Cl)cc3F)n2)cc(OC)c1OC [Compound 306]
< 5.01 | < 5.01 | < 5.01 | < 5.01 | < 5.01 | < 5.01 | < 5.01 | < 5.01 | < 5.01 | < 5.01 | < 5.01 | < 5.01 | < 5.01 | < 5.01 | COc1cc(Nc2ncnc(N(CC(=O)O)c3ccc4c(c3)OCO4)n2)cc(OC)c1OC [Compound 319]
> 6.03 | 5.25 to 6.03 | > 6.03 | > 6.03 | > 6.03 | < 4.98 | > 6.03 | 5.25 to 6.03 | 4.98 to 5.08 | 5.25 to 6.03 | > 6.03 | 5.25 to 6.03 | 5.25 to 6.03 | 5.08 to 5.25 | COc1cc(Nc2ncnc(N3c4ccc(F)cc4CCC3C)n2)cc(OC)c1OC (stereo not shown) [Compound 298]
5.07 to 5.23 | 5.23 to 6.01 | 5.07 to 5.23 | 5.07 to 5.23 | > 6.01 | < 4.96 | < 4.96 | < 4.96 | 4.96 to 5.07 | < 4.96 | 4.96 to 5.07 | < 4.96 | < 4.96 | > 6.01 | COc1cc(Nc2ncnc(-n3ccc4ccc(Cl)cc43)n2)cc(OC)c1OC [Compound 237]
< 4.91 | 5.18 to 5.96 | 4.91 to 5.02 | < 4.91 | > 5.96 | < 4.91 | < 4.91 | < 4.91 | < 4.91 | < 4.91 | < 4.91 | < 4.91 | < 4.91 | > 5.96 | COc1ccc(Nc2ncnc(-n3c(N)nc4ccccc43)n2)cc1OC [Compound 285]
< 4.89 | 4.89 to 5.00 | < 4.89 | < 4.89 | 5.00 to 5.16 | < 4.89 | < 4.89 | < 4.89 | < 4.89 | < 4.89 | < 4.89 | < 4.89 | < 4.89 | 5.16 to 5.94 | C#Cc1cccc(Nc2ncnc(Nc3ccc(OC)c(OC)c3)n2)c1 [Compound 116]
5.20 to 5.98 | 5.20 to 5.98 | 5.03 to 5.20 | < 4.92 | 5.20 to 5.98 | < 4.92 | > 5.98 | < 4.92 | < 4.92 | < 4.92 | 5.20 to 5.98 | 5.20 to 5.98 | < 4.92 | < 4.92 | COc1cc(Nc2ncnc(-n3ncc4ccccc43)n2)cc(OC)c1OC [Compound 240]
< 4.99 | < 4.99 | < 4.99 | < 4.99 | 5.26 to 6.04 | < 4.99 | < 4.99 | < 4.99 | < 4.99 | < 4.99 | < 4.99 | < 4.99 | < 4.99 | < 4.99 | COc1cc2ccn(-c3ncnc(Nc4cc(OC)c(OC)c(OC)c4)n3)c2cc1OC [Compound 239]
< 5.01 | < 5.01 | < 5.01 | 5.12 to 5.28 | 5.28 to 6.06 | 5.28 to 6.06 | < 5.01 | 5.01 to 5.12 | 5.12 to 5.28 | < 5.01 | < 5.01 | < 5.01 | < 5.01 | < 5.01 | CCOc1ccc(Nc2ncnc(Nc3ccc(OCc4ccccc4)cc3)n2)cc1OCC [Compound 170]
5.06 to 5.22 | 5.22 to 6.00 | < 4.95 | 5.22 to 6.00 | > 6.00 | < 4.95 | > 6.00 | < 4.95 | < 4.95 | < 4.95 | 5.06 to 5.22 | 5.22 to 6.00 | < 4.95 | 5.22 to 6.00 | COc1ccc(Sc2ncnc(Nc3cc(OC)c(OC)c(OC)c3)n2)cc1 [Compound 175]
5.07 to 5.23 | < 4.96 | 5.07 to 5.23 | < 4.96 | > 6.01 | < 4.96 | > 6.01 | < 4.96 | < 4.96 | < 4.96 | 5.23 to 6.01 | < 4.96 | < 4.96 | 5.23 to 6.01 | COc1ccc2c(ccn2-c2ncnc(Nc3cc(OC)c(OC)c(OC)c3)n2)c1 [Compound 196]
5.32 to 6.10 | 5.16 to 5.32 | 5.16 to 5.32 | < 5.05 | 5.32 to 6.10 | < 5.05 | < 5.05 | < 5.05 | < 5.05 | < 5.05 | 5.16 to 5.32 | < 5.05 | < 5.05 | 5.05 to 5.16 | COc1cc(Nc2ncnc(N(C/C=C/c3ccccc3)c3ccc(Cl)cc3)n2)cc(OC)c1OC [Compound 56]
< 4.96 | < 4.96 | < 4.96 | < 4.96 | 5.23 to 6.01 | < 4.96 | > 6.01 | < 4.96 | < 4.96 | < 4.96 | 5.23 to 6.01 | < 4.96 | < 4.96 | < 4.96 | COc1cc(Nc2ncnc(-n3ccc4cc(Cl)ccc43)n2)cc(OC)c1OC [Compound 198]
